Measured values as given in PMC9276943 (Molecular Plant Pathology, 2022).

Molecular target: T1, truncated CsrD, EAL domain only (E. amylovora Ea1189) (Erwinia amylovora, UniProt A0ABX7MI01)
T1 sequence (A0ABX7MI01 403-633): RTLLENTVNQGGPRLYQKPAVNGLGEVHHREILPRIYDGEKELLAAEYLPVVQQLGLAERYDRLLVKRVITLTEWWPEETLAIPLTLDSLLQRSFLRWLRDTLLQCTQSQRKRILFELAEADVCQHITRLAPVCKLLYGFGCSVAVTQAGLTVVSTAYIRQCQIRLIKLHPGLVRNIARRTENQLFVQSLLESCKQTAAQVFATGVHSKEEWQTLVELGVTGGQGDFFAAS
Assay: streptavidin pull-down with anti-His immunoblot
Format: binding
Conditions: labelled compound (biotinylated c-di-GMP, 100 µM); 1.7 µM protein

## Nc1nc2c(ncn2[C@@H]2O[C@@H]3COP(=O)(O)O[C@H]4[C@@H](O)[C@H](n5cnc6c(=O)[nH]c(N)nc65)O[C@@H]4COP(=O)(O)O[C@H]3[C@H]2O)c(=O)[nH]1 [c-di-GMP]
  streptavidin pull-down with anti-His immunoblot: truncated version of CsrD that consisted of only the WT EAL domain exhibited binding
